Assay results as given in ChEMBL document CHEMBL2040769, “Lipase-catalyzed preparation of chromomycin A₃ analogues and biological evaluation for anticancer activity” (Bioorg Med Chem Lett, 2012).

Legend:
BXPC-3 = assay: Cytotoxicity against human BxPC3 cells; assay type: functional, cell-based
A549 = assay: Cytotoxicity against human A549 cells; assay type: functional, cell-based
COLO 205 [1] = assay: Ratio of IC50 for chromomycin to compound for human COLO205 cells; assay type: functional
COLO 205 [2] = assay: Cytotoxicity against human COLO205 cells; assay type: functional, cell-based
NIH3T3 = assay: Cytotoxicity against mouse NIH/3T3 cells; assay type: cell-based
COLO 205 [3] = assay: Cytotoxicity against human COLO205 cells relative to chromomycin A3; assay type: functional; conditions: pooled result: one value given for 4 cell lines, strains, targets or settings
A2780 [4] = assay: Cytotoxicity against human A2780 cells; assay type: functional, cell-based
A2780 [5] = assay: Ratio of IC50 for chromomycin to compound for human A2780 cells; assay type: functional

Compound | IC50 (BXPC-3) [µM] | IC50 (A549) [µM] | Ratio IC50 (COLO 205 [1]) | IC50 (COLO 205 [2]) [µM] | IC50 (NIH3T3) [µM] | Ratio IC50 (COLO 205 [3]) | IC50 (A2780 [4]) [µM] | Ratio IC50 (A2780 [5])
C=COC(=O)CCCCC(=O)O[C@H](C)[C@H](O)C(=O)[C@@H](OC)[C@@H]1Cc2cc3cc(O[C@H]4C[C@@H](O[C@@H]5C[C@@H](O)[C@H](OC)[C@@H](C)O5)[C@H](OC(C)=O)[C@@H](C)O4)c(C)c(O)c3c(O)c2C(=O)[C@H]1O[C@H]1C[C@H](O[C@H]2C[C@H](O[C@H]3C[C@@](C)(O)[C@@H](OC(C)=O)[C@H](C)O3)[C@H](O)[C@@H](C)O2)[C@H](O)[C@@H](C)O1 | 0.06 | 0.03 | 8 | 0.012 | 1.2 | 3.2 | 0.005 | 5
CO[C@H]1[C@H](O)C[C@@H](O[C@@H]2C[C@H](Oc3cc4cc5c(c(O)c4c(O)c3C)C(=O)[C@@H](O[C@H]3C[C@H](O[C@H]4C[C@H](O[C@H]6C[C@@](C)(O)[C@@H](OC(C)=O)[C@H](C)O6)[C@H](O)[C@@H](C)O4)[C@H](O)[C@@H](C)O3)[C@H]([C@H](OC)C(=O)[C@@H](O)[C@@H](C)OC(C)=O)C5)O[C@H](C)[C@H]2OC(C)=O)O[C@@H]1C | 0.45 | 0.2 | – | 0.065 | 0.8 | 0.34 | 0.25 | –
CCC(=O)O[C@H](C)[C@H](O)C(=O)[C@@H](OC)[C@@H]1Cc2cc3cc(O[C@H]4C[C@@H](O[C@@H]5C[C@@H](O)[C@H](OC)[C@@H](C)O5)[C@H](OC(C)=O)[C@@H](C)O4)c(C)c(O)c3c(O)c2C(=O)[C@H]1O[C@H]1C[C@H](O[C@H]2C[C@H](O[C@H]3C[C@@](C)(O)[C@@H](OC(C)=O)[C@H](C)O3)[C@H](O)[C@@H](C)O2)[C@H](O)[C@@H](C)O1 | 0.3 | 0.5 | – | 0.125 | 1 | 0.28 | 0.25 | –
CCCC(=O)O[C@H](C)[C@H](O)C(=O)[C@@H](OC)[C@@H]1Cc2cc3cc(O[C@H]4C[C@@H](O[C@@H]5C[C@@H](O)[C@H](OC)[C@@H](C)O5)[C@H](OC(C)=O)[C@@H](C)O4)c(C)c(O)c3c(O)c2C(=O)[C@H]1O[C@H]1C[C@H](O[C@H]2C[C@H](O[C@H]3C[C@@](C)(O)[C@@H](OC(C)=O)[C@H](C)O3)[C@H](O)[C@@H](C)O2)[C@H](O)[C@@H](C)O1 | 0.45 | 0.185 | – | 0.035 | 0.75 | 0.45 | 0.065 | –
CCCCCCCCCC(=O)O[C@H](C)[C@H](O)C(=O)[C@@H](OC)[C@@H]1Cc2cc3cc(O[C@H]4C[C@@H](O[C@@H]5C[C@@H](O)[C@H](OC)[C@@H](C)O5)[C@H](OC(C)=O)[C@@H](C)O4)c(C)c(O)c3c(O)c2C(=O)[C@H]1O[C@H]1C[C@H](O[C@H]2C[C@H](O[C@H]3C[C@@](C)(O)[C@@H](OC(C)=O)[C@H](C)O3)[C@H](O)[C@@H](C)O2)[C@H](O)[C@@H](C)O1 | 0.8 | 0.5 | – | 0.25 | 1 | 0.17 | 0.375 | –
CO[C@@H]1[C@H](O)C[C@@H](O[C@@H]2C[C@H](Oc3cc4cc5c(c(O)c4c(O)c3C)C(=O)[C@@H](O[C@H]3C[C@@H](O[C@H]4C[C@@H](O[C@H]6C[C@](C)(O)[C@@H](OC(C)=O)[C@H](C)O6)[C@H](O)[C@@H](C)O4)[C@H](O)[C@@H](C)O3)[C@H]([C@H](OC)C(=O)[C@@H](O)[C@@H](C)O)C5)O[C@H](C)[C@@H]2OC(C)=O)O[C@@H]1C [CHROMOMYCIN A3] | 0.13 | 0.1 | – | 0.063 | 1 | – | 0.04 | –
